In brackets after ≈: the same amount, converted by molar mass. Like-named read-outs stand apart in the source and are kept apart here.
What was measured:
E. coli GC 1073 = assay: MIC, broth microdilution; settings: Escherichia coli
S. aureus GC 6469 = assay: MIC, broth microdilution; settings: Staphylococcus aureus
c. albicans GC 3066 = assay: MIC, broth microdilution
S. aureus GC 2216 = assay: MIC, broth microdilution; settings: Staphylococcus aureus
E. coli = assay: Range of MIC for E. coli strains; settings: Escherichia coli
E. coli GC 2270 = assay: MIC, broth microdilution; settings: Escherichia coli
E. coli GC 4559 = assay: MIC, broth microdilution; settings: Escherichia coli
P. aeruginosa GC 2214 = assay: MIC, broth microdilution; settings: Pseudomonas aeruginosa
S. pyogenes GC 4563 = assay: MIC, broth microdilution; settings: Streptococcus pyogenes
S. agalactiae GC 4564 = assay: MIC, broth microdilution; settings: Streptococcus agalactiae
E. faecalis GC 2242 = assay: MIC, broth microdilution; settings: Enterococcus faecalis
S. pneumoniae+ GC 4465 = assay: MIC, broth microdilution; settings: Streptococcus pneumoniae
E. coli GC 2271 = assay: MIC, broth microdilution; settings: Escherichia coli
S. aureus GC 4536 = assay: MIC, broth microdilution; settings: Staphylococcus aureus
E. coli GC 3226 = assay: MIC, broth microdilution; settings: Escherichia coli
Staph. aureus Smith = assay: In vivo activity (oral, iv; ED50) against Staph. aureus Smith in mice
Experimental: Representative examples of compounds of Formula I were tested for the oral efficacy using S. aureus Smith in mice.

S. aureus GC 6335 = assay: MIC, broth microdilution; settings: Staphylococcus aureus
E. faecalis GC 2265 = assay: MIC, broth microdilution; settings: Enterococcus faecalis
E. coli GC 2232 = assay: MIC, broth microdilution; settings: Escherichia coli
E. faecium GC 2243 = assay: MIC, broth microdilution; settings: Enterococcus faecium
Experimental: Antimicrobial susceptibility testing. The in vitro activities of the antibiotics are determined by the broth microdilution method as recommended by the National Committee for Clinical Laboratory Standards (NCCLS) (1). Mueller-Hinton II broth (MHBII)(BBL Cockeysville, Md.) is the medium employed in the testing procedures. Microtiter plates containing serial dilutions of each antimicrobial agent are inoculated with each organism to yield the appropriate density (10^5 CFU/ml) in a 100 μl final volume. The plates are incubated for 18-22 hours at 35° C. in ambient air.
Representative compounds were first incubated in mouse serum for an hour prior to the in vitro testing against a panel of selected gram-positive and gram-negative bacteria strains. All compounds were also pre-incubated in water for an hour prior to testing as control.

CCC(=O)OCOC(=O)N(CC(=O)Nc1cc(N(C)C)c2c(c1O)C(=O)C1=C(O)[C@]3(O)C(=O)C(C(N)=O)=C(O)[C@@H](N(C)C)[C@@H]3C[C@@H]1C2)C(C)(C)C [Example 49, ({[(2-{[(5aR,6aS,7S,10aS)-9-(aminocarbonyl)-4,7-bis(dimethylamino)-1,8,10a,11-tetrahydroxy-10,12-dioxo-5,5a,6,6a,7,10,10a,12-octahydrotetracen-2-yl]amino}-2-oxoethyl)(tert-butyl)amino]carbonyl}oxy)methyl propionate]
MIC (E. coli GC 1073; GC1073, read-out: MINIMAL INHIBITORY CONCENTRATION MIC, Human Serum): 8 µg/mL (≈ 11.2 µM)
MIC (E. coli GC 1073; GC1073, read-out: MINIMAL INHIBITORY CONCENTRATION MIC, Mouse Serum): 0.5 µg/mL (≈ 0.699 µM)
MIC (E. coli GC 1073; GC1073, read-out: MINIMAL INHIBITORY CONCENTRATION MIC, Water): 32 µg/mL (≈ 44.7 µM)
MIC (S. aureus GC 6469; GC6469, read-out: MINIMAL INHIBITORY CONCENTRATION MIC, Human Serum): 1 µg/mL (≈ 1.4 µM)
MIC (S. aureus GC 6469; GC6469, read-out: MINIMAL INHIBITORY CONCENTRATION MIC, Mouse Serum): 1 µg/mL (≈ 1.4 µM)
MIC (S. aureus GC 6469; GC6469, read-out: MINIMAL INHIBITORY CONCENTRATION MIC, Water): 1 µg/mL (≈ 1.4 µM)
MIC (c. albicans GC 3066; Candida albicans, GC3066, read-out: MINIMAL INHIBITORY CONCENTRATION MIC): > 64 µg/mL
MINIMAL INHIBITORY CONCENTRATION MIC (c. albicans GC 3066; Human Serum): >64 UG/ML
MINIMAL INHIBITORY CONCENTRATION MIC (c. albicans GC 3066; Mouse Serum): >64 UG/ML
MIC (S. aureus GC 2216; GC2216, read-out: MINIMAL INHIBITORY CONCENTRATION MIC, Human Serum): 0.25 µg/mL (≈ 0.349 µM)
MIC (S. aureus GC 2216; GC2216, read-out: MINIMAL INHIBITORY CONCENTRATION MIC, Mouse Serum): 0.25 µg/mL (≈ 0.349 µM)
MIC (S. aureus GC 2216; GC2216, read-out: MINIMAL INHIBITORY CONCENTRATION MIC, Water): 0.5 µg/mL (≈ 0.699 µM)
MIC (E. coli; 20 h, read-out: Range of MIC, E. coli (Mouse Serum)): 0.25 to 2 µg/mL (≈ 0.349 to 2.79 µM)
MIC (E. coli; read-out: Minimum inhibitory concentration (MIC), E. coli (Human Serum)): 4 to 32 µg/mL (≈ 5.59 to 44.7 µM)
MIC (E. coli GC 2270; GC2270, read-out: MINIMAL INHIBITORY CONCENTRATION MIC, Human Serum): 4 µg/mL (≈ 5.59 µM)
MIC (E. coli GC 2270; GC2270, read-out: MINIMAL INHIBITORY CONCENTRATION MIC, Mouse Serum): 0.5 µg/mL (≈ 0.699 µM)
MIC (E. coli GC 2270; GC2270, read-out: MINIMAL INHIBITORY CONCENTRATION MIC, Water): 16 µg/mL (≈ 22.4 µM)
MIC (E. coli GC 4559; GC4559, read-out: MINIMAL INHIBITORY CONCENTRATION MIC, Human Serum): 8 µg/mL (≈ 11.2 µM)
MIC (E. coli GC 4559; GC4559, read-out: MINIMAL INHIBITORY CONCENTRATION MIC, Mouse Serum): 0.5 µg/mL (≈ 0.699 µM)
MIC (E. coli GC 4559; GC4559, read-out: MINIMAL INHIBITORY CONCENTRATION MIC, Water): 16 µg/mL (≈ 22.4 µM)
MIC (P. aeruginosa GC 2214; GC2214, read-out: MINIMAL INHIBITORY CONCENTRATION MIC, Human Serum): > 64 µg/mL
MIC (P. aeruginosa GC 2214; GC2214, read-out: MINIMAL INHIBITORY CONCENTRATION MIC, Mouse Serum): 32 µg/mL (≈ 44.7 µM)
MIC (P. aeruginosa GC 2214; GC2214, read-out: MINIMAL INHIBITORY CONCENTRATION MIC, Water): > 64 µg/mL
MIC (S. pyogenes GC 4563; GC4563, read-out: MINIMAL INHIBITORY CONCENTRATION MIC, Human Serum): 0.12 µg/mL (≈ 0.168 µM)
MIC (S. pyogenes GC 4563; GC4563, read-out: MINIMAL INHIBITORY CONCENTRATION MIC, Mouse Serum): 0.12 µg/mL (≈ 0.168 µM)
MIC (S. pyogenes GC 4563; GC4563, read-out: MINIMAL INHIBITORY CONCENTRATION MIC, Water): 0.12 µg/mL (≈ 0.168 µM)
MIC (S. agalactiae GC 4564; GC4564, read-out: MINIMAL INHIBITORY CONCENTRATION MIC, Human Serum): 0.12 µg/mL (≈ 0.168 µM)
MIC (S. agalactiae GC 4564; GC4564, read-out: MINIMAL INHIBITORY CONCENTRATION MIC, Mouse Serum): 0.12 µg/mL (≈ 0.168 µM)
MIC (S. agalactiae GC 4564; GC4564, read-out: MINIMAL INHIBITORY CONCENTRATION MIC, Water): 0.25 µg/mL (≈ 0.349 µM)
MIC (E. faecalis GC 2242; GC2242, read-out: MINIMAL INHIBITORY CONCENTRATION MIC, Human Serum): 1 µg/mL (≈ 1.4 µM)
MIC (E. faecalis GC 2242; GC2242, read-out: MINIMAL INHIBITORY CONCENTRATION MIC, Mouse Serum): 0.5 µg/mL (≈ 0.699 µM)
MIC (E. faecalis GC 2242; GC2242, read-out: MINIMAL INHIBITORY CONCENTRATION MIC, Water): 2 µg/mL (≈ 2.79 µM)
MIC (S. pneumoniae+ GC 4465; read-out: MINIMAL INHIBITORY CONCENTRATION MIC, Human Serum): 1 µg/mL (≈ 1.4 µM)
MIC (S. pneumoniae+ GC 4465; read-out: MINIMAL INHIBITORY CONCENTRATION MIC, Mouse Serum): 1 µg/mL (≈ 1.4 µM)
MIC (S. pneumoniae+ GC 4465; read-out: MINIMAL INHIBITORY CONCENTRATION MIC, Water): 1 µg/mL (≈ 1.4 µM)
MIC (E. coli GC 2271; GC2271, read-out: MINIMAL INHIBITORY CONCENTRATION MIC, Human Serum): 4 µg/mL (≈ 5.59 µM)
MIC (E. coli GC 2271; GC2271, read-out: MINIMAL INHIBITORY CONCENTRATION MIC, Mouse Serum): 0.25 µg/mL (≈ 0.349 µM)
MIC (E. coli GC 2271; GC2271, read-out: MINIMAL INHIBITORY CONCENTRATION MIC, Water): 8 µg/mL (≈ 11.2 µM)
MIC (S. aureus GC 4536; GC4536, read-out: MINIMAL INHIBITORY CONCENTRATION MIC, Human Serum): 0.25 µg/mL (≈ 0.349 µM)
MIC (S. aureus GC 4536; GC4536, read-out: MINIMAL INHIBITORY CONCENTRATION MIC, Mouse Serum): 0.25 µg/mL (≈ 0.349 µM)
MIC (S. aureus GC 4536; GC4536, read-out: MINIMAL INHIBITORY CONCENTRATION MIC, Water): 0.25 µg/mL (≈ 0.349 µM)
MIC (E. coli GC 3226; GC3226, read-out: MINIMAL INHIBITORY CONCENTRATION MIC, Human Serum): 8 µg/mL (≈ 11.2 µM)
MIC (E. coli GC 3226; GC3226, read-out: MINIMAL INHIBITORY CONCENTRATION MIC, Mouse Serum): 0.5 µg/mL (≈ 0.699 µM)
MIC (E. coli GC 3226; GC3226, read-out: MINIMAL INHIBITORY CONCENTRATION MIC, Water): 16 µg/mL (≈ 22.4 µM)
ED50 (Staph. aureus Smith; Staphylococcus aureus, in Mus musculus, iv, read-out: ED50 SIV (Staph aureus Smith)): 0.92 mg/kg
ED50 (Staph. aureus Smith; Staphylococcus aureus, in Mus musculus, po, read-out: ED50 SOD (Staph aureus Smith)): 16 mg/kg
ED50 (Staph. aureus Smith; Staphylococcus aureus, in Mus musculus, po, read-out: ED50 Staph Smith SOD): 16.6 mg/kg
ED50 (Staph. aureus Smith; iv, read-out: ED50 Staph Smith SIV): 0.92 mg/kg
MIC (S. aureus GC 6335; GC6335, read-out: MINIMAL INHIBITORY CONCENTRATION MIC, Human Serum): 1 µg/mL (≈ 1.4 µM)
MIC (S. aureus GC 6335; GC6335, read-out: MINIMAL INHIBITORY CONCENTRATION MIC, Mouse Serum): 1 µg/mL (≈ 1.4 µM)
MIC (S. aureus GC 6335; GC6335, read-out: MINIMAL INHIBITORY CONCENTRATION MIC, Water): 2 µg/mL (≈ 2.79 µM)
MIC (E. faecalis GC 2265; GC2265, read-out: MINIMAL INHIBITORY CONCENTRATION MIC, Human Serum): 1 µg/mL (≈ 1.4 µM)
MIC (E. faecalis GC 2265; GC2265, read-out: MINIMAL INHIBITORY CONCENTRATION MIC, Mouse Serum): 0.5 µg/mL (≈ 0.699 µM)
MIC (E. faecalis GC 2265; GC2265, read-out: MINIMAL INHIBITORY CONCENTRATION MIC, Water): 2 µg/mL (≈ 2.79 µM)
MIC (E. coli GC 2232; GC2232, read-out: MINIMAL INHIBITORY CONCENTRATION MIC, Human Serum): 4 µg/mL (≈ 5.59 µM)
MIC (E. coli GC 2232; GC2232, read-out: MINIMAL INHIBITORY CONCENTRATION MIC, Mouse Serum): 0.5 µg/mL (≈ 0.699 µM)
MIC (E. coli GC 2232; GC2232, read-out: MINIMAL INHIBITORY CONCENTRATION MIC, Water): 16 µg/mL (≈ 22.4 µM)
MIC (E. faecium GC 2243; GC2243, read-out: MINIMAL INHIBITORY CONCENTRATION MIC, Human Serum): 0.25 µg/mL (≈ 0.349 µM)
MIC (E. faecium GC 2243; GC2243, read-out: MINIMAL INHIBITORY CONCENTRATION MIC, Mouse Serum): 0.25 µg/mL (≈ 0.349 µM)
MIC (E. faecium GC 2243; GC2243, read-out: MINIMAL INHIBITORY CONCENTRATION MIC, Water): 0.5 µg/mL (≈ 0.699 µM)
